Consider one compound from ChEMBL document CHEMBL5500413, “Discovery of Novel Receptor Tyrosine Kinase-like Orphan Receptor 1 (ROR1) Inhibitors for Cancer Treatment” (J Med Chem, 2024).

Assay [1] addresses Inactive tyrosine-protein kinase transmembrane receptor ROR1 (Homo sapiens, UniProt Q01973). In words: Binding affinity to ROR1 kinase domain (453 to 783 residues) (unknown origin) assessed as dissociation constant by SPR analysis.
A further assay relates to NCI-H1975. In words: Antiproliferative activity against human NCI-H1975 cells harboring high ROR1 expression assessed as inhibition of cell growth incubated for 72 hrs by MTT assay. Conditions: NCI-H1975, 72 h. Type of assay: functional, cell-based.
The subject of a further assay is A549. As to the kind of experiment: Antiproliferative activity against human A549 cells harboring high ROR1 expression assessed as inhibition of cell growth incubated for 72 hrs by MTT assay. Format: functional, cell-based. Conditions: A549, 72 h.
The test system of the next assay is MDA-MB-231. As to the kind of experiment: Antiproliferative activity against human MDA-MB-231 cells harboring high ROR1 expression assessed as inhibition of cell growth incubated for 72 hrs by MTT assay. Type of assay: functional, cell-based. The settings on record: MDA-MB-231, 72 h.

Inactive tyrosine-protein kinase transmembrane receptor ROR1, sequence (Q01973 whole entry, the tested form may be a part): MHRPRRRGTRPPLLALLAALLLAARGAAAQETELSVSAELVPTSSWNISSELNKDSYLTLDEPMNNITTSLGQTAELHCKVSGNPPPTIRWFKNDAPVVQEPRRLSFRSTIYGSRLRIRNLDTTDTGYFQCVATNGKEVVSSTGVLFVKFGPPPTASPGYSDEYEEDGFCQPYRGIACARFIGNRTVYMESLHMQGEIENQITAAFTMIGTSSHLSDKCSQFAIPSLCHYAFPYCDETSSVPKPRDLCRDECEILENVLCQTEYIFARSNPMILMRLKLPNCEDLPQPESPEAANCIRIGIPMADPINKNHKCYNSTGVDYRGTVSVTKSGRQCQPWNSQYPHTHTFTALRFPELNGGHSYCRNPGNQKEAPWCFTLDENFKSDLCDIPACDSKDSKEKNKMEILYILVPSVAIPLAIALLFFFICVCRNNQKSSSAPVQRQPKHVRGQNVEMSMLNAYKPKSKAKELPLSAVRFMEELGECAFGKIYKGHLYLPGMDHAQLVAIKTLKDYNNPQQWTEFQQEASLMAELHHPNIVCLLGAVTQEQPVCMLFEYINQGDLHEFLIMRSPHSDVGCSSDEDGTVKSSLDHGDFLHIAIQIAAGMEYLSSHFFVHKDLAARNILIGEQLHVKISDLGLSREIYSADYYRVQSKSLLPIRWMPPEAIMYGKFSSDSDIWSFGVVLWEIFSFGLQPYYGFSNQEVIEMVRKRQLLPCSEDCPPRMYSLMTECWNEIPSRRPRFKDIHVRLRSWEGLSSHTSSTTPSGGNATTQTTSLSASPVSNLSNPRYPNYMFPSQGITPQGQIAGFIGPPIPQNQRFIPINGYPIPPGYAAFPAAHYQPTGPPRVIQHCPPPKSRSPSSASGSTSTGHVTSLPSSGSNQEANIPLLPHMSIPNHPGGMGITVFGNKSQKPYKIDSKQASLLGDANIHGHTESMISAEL

On to `Cc1ccc(C(=O)Nc2cccc(N(C)C)c2)cc1C#Cc1cnc2cccnn12`, for which the Kd in assay [1] was 8.25 µM. In addition, the figures for the half-inhibitory concentration (IC50) in the assay on NCI-H1975, in the assay on A549 and in the assay with MDA-MB-231 were 66.7 µM, 27.5 µM and 31.3 µM, respectively.
